The subject of test [1] is Rat type II alveolar cell, L2 cell line. Nature of the test: Cell survival test (MTT analysis) under H2O2 oxidative stress. The format is cell-based. The following applies: 24 hours, control group = 100%. How it is done: The rat type II alveolar cell, L2 cell line (ATCC® CCL149™) were seeded into a 96-well plate at a density of 5×10^3 cells/well, 48 wells in total (separated into a control group and five experimental groups, 8 wells for each group). The cells were cultured until the next day, and then the mediums were removed. Each group was respectively treated under the following conditions to conduct follow-up experiments:
(1) Control group: cells were cultured in a F-12K medium (Kaighn's Modification of Ham's F-12 Medium, ATCC® 30-2004™) for 24 hours;
(2) Group 1: cells were cultured in a F-12K medium containing H2O2 (0.1 mM) for 24 hours;
(3) Group 2: cells were cultured in a F-12K medium containing H2O2 (0.1 mM) and compound (1) (5 μg/ml) for 24 hours;
(4) Group 3: cells were cultured in a F-12K medium containing H2O2 (0.1 mM) and N-acetylcysteine (NAC) (2 mM) for 24 hours;
(5) Group 4: cells were cultured in a F-12K medium containing H2O2 (0.2 mM) and compound (1) (5 μg/ml) for 24 hours; and
(6) Group 5: cells were cultured in a F-12K medium containing H2O2 (0.2 mM) and NAC (2 mM) for 24 hours.
The mediums were removed after culturing was complete, and then each group was respectively treated under the following conditions: F-12K mediums containing 10% of 3-(4,5-Dimethylthiazol-2-yl)-2,5-diphenyltetrazolium bromide (MTT) were added into each well, and cultured for 1 hour. Thereafter, the mediums were removed, and a suitable amount of dimethyl sulfoxide (DMSO) was added into the wells. An Enzyme-Linked ImmunoSorbent Assay reader (ELISA reader) was then used for detecting the absorbance of each group at a wavelength of 595 nm (OD595nm). The average value of each group was respectively calculated (n=8), and then the result of the control group served as the basis for calculating the relative survival rates of the other groups.

A further test deals with BMP-7 protein. Nature of the test: BMP-7 protein expression in NHLF, western blotting (3-1). The class given is cell-based, human. How it is done:
Normal Human lung fibroblasts (NHLF) were seeded into 6 cm culture dishes at a density of 2×10^5 cells/dish, comprising a control group and six experimental groups (7 dishes in total). The cells were cultured until the next day, and then the mediums were removed. Each group was respectively treated under the following conditions to conduct follow-up experiments: • (1) Control group: cells were cultured in a FGM-2 medium containing 10% serum for 36 hours; • (2) Group i: cells were cultured in a FGM-2 medium containing 1% serum for 36 hours; • (3) Group ii: cells were firstly cultured in a FGM-2 medium containing 1% serum for 12 hours, and then compound (1) was added into the medium to provide a final concentration of 15 μg/ml; thereafter, the cells were cultured for another 24 hours; • (4) Group iii: cells were firstly cultured in a FGM-2 medium containing 1% serum for 12 hours, and then compound (1) was added into the medium to provide a final concentration of 25 μg/ml; thereafter, the cells were cultured for another 24 hours; • (5) Group iv: cells were cultured in a FGM-2 medium containing 1% serum and TGF-β1 (5 ng/ml) for 36 hours; • (6) Group v: cells were firstly cultured in a FGM-2 medium containing 1% serum and TGF-β1 (5 ng/ml) for 12 hours, and then compound (1) was added into the medium to provide a final concentration of 15 μg/ml; thereafter, the cells were cultured for another 24 hours; and • (7) Group vi: cells were firstly cultured in a FGM-2 medium containing 1% serum and TGF-β1 (5 ng/ml) for 12 hours, and then compound (1) was added into the medium to provide a final concentration of 25 μg/ml; thereafter, the cells were cultured for another 24 hours.
Thereafter, the proteins in the cells of each group were extracted, and the expressions of BMP-7 protein, TGF-β protein and α-SMA protein in the NHLF cells of each group were measured with western blotting, wherein the β-actin served as the internal control. The results of the control group served as the basis for calculating the relative expression levels of the other groups.
(In general: In western blotting, separated proteins are transferred to a membrane and probed.)

For another test, the system named is IL-β. Nature of the test: IL-β mRNA in mouse pulmonary tissue, RT-PCR. The format is in vivo, mice. The following applies: Bleomycin sulfate, normal control = 1, oil group = 2.34. From the text: 24 C57B/L6 mice (age: four weeks) were separated into four groups (6 mice in each group). […]
Then, for another portion of ground samples of each group, the total RNAs were extracted using an RNeasy Mini Kit. The QuantiTect Reverse Transcription Kit was used to conduct reverse transcription on the total RNA to obtain the cDNA. […]

Turning to `CCCC=C1OC(=O)c2ccccc21` [compound (1)], the Relative survival rate in test [1] (Group 2: H2O2 0.1 mM + compound (1) 5 μg/ml, H2O2 0.1 mM alone = 38.9%) was found to be 109.4%; in test [1] (Group 4: H2O2 0.2 mM + compound (1) 5 μg/ml), 80.6%. Moreover, the “Relative expression level (fold) BMP-7 protein” value in the test with BMP-7 protein (Group ii: 1% serum 12 h, then compound (1) 15 μg/ml 24 h, no TGF-β1, 10% serum control = 1, 1% serum group i = 1) was determined as 0.91 fold; in the test with BMP-7 protein (Group iii: 1% serum 12 h, then compound (1) 25 μg/ml 24 h, no TGF-β1, 10% serum control = 1, 1% serum group i = 1) it was 0.81 fold; in the test with BMP-7 protein (Group v: 1% serum + TGF-β1 5 ng/ml 12 h, then compound (1) 15 μg/ml 24 h, 10% serum control = 1, TGF-β1-only group iv = 0.82) it was 0.76 fold; in the test with BMP-7 protein (Group vi: 1% serum + TGF-β1 5 ng/ml 12 h, then compound (1) 25 μg/ml 24 h, 10% serum control = 1, TGF-β1-only group iv = 0.82) it was 1.07 fold. Moreover, the “Relative expression level (fold) IL-β” value is 0.52 fold in the test on IL-β (High-dose group: mRNA in pulmonary tissue, compound (1) 50 mg/kg-body weight orally every day for 30 days) and 1.02 fold in the test on IL-β (Low-dose group: mRNA in pulmonary tissue, compound (1) 10 mg/kg-body weight orally every day for 30 days).

(Values after US20170333391A1, “METHOD FOR DELAYING THE ONSET OF PULMONARY FIBROSIS OR TREATING PULMONARY FIBROSIS” (EVERFRONT BIOTECH INC., priority 2016, published 2017).)
